Measurements published in the supplement of paper PMC10331698.
± gives the standard deviation of the averaged measurements.

Key:
Experiment in all cases: level (log10 ratio to DMSO vehicle control); higher = higher biomarker level / cell amount than vehicle control
[1] = compound: O=C(O)C(F)(OC(F)(F)C(F)(F)C(F)(F)F)C(F)(F)F [Ammonium perfluoro-2-methyl-3-oxahexanoate] (in Water)
Description: (§1)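 BioMAP Diversity Plus panel of 12 human primary cell co-culture systems (3C, 4H, LPS, SAg, BT, BF4T, BE3C, CASM3C, HDF3CGF, KF3CT, MyoF, Mphg). Compounds were added 1 h before stimulation and left for 24 h (MyoF 48 h; BT 72 h for soluble read-outs or 6 d for IgG). Biomarkers were read by ELISA, cytotoxicity by SRB, PBMC viability and proliferation by Alamar Blue. Each well value was divided by the mean of 8 DMSO control wells on the same plate and log10 transformed; duplicate blinded samples were tested at 4 concentrations.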

[2] = compound: O=S(=O)(O)CCC(F)(F)C(F)(F)C(F)(F)C(F)(F)C(F)(F)C(F)(F)C(F)(F)C(F)(F)F [8:2 Fluorotelomer sulfonic acid] (in DMSO)
Description: as §1

[3] = compound: C[C@@H]1C[C@H]2[C@@H]3CCC4=CC(=O)C=C[C@]4(C)[C@@]3(F)[C@@H](O)C[C@]2(C)[C@@]1(O)C(=O)COP(=O)(O)O [Dexamethasone sodium phosphate] (in DMSO)
Description: as §1

[4] = compound: O=S(=O)(O)C(F)(F)C(F)(F)C(F)(F)C(F)(F)C(F)(F)C(F)(F)C(F)(F)F [Perfluoroheptanesulfonic acid] (in DMSO)
Description: as §1

[5] = compound: OCC(F)(F)OC(F)(F)C(F)(F)OC(F)(F)C(F)(F)OC(F)(F)CO [1H,1H,11H,11H-Perfluorotetraethylene glycol] (in DMSO)
Description: as §1

[6] = compound: O=C(O)C(F)(F)C(F)(F)C(F)(F)C(F)(F)C(=O)O [Octafluoroadipic acid] (in DMSO)
Description: as §1

Test System	level (log10) ([1]; 6700 nM)	level (log10) ([1]; 20000 nM)	level (log10) ([1]; 60000 nM)	level (log10) ([2]; 6700 nM)	level (log10) ([2]; 20000 nM)	level (log10) ([2]; 60000 nM)	level (log10) ([3]; 1500 nM)	level (log10) ([3]; 4400 nM)	level (log10) ([3]; 13000 nM)	level (log10) ([3]; 40000 nM)	level (log10) ([4]; 1500 nM)	level (log10) ([4]; 4400 nM)	level (log10) ([4]; 13000 nM)	level (log10) ([4]; 40000 nM)	level (log10) ([5]; 6700 nM)	level (log10) ([5]; 20000 nM)	level (log10) ([5]; 60000 nM)	level (log10) ([6]; 6700 nM)	level (log10) ([6]; 20000 nM)	level (log10) ([6]; 60000 nM)
HDF3CGF:Collagen I	-0.029 ± 0.031	0.0015 ± 0.005	-0.0095 ± 0.0092	0.007 ± 0.038	0.0195 ± 0.049	-0.0455 ± 0.17	-0.0005 ± 0.1	-0.016 ± 0.047	-0.0155 ± 0.023	0.0075 ± 0.005	-0.0005 ± 0.011	-0.0075 ± 0.021	-0.0105 ± 0.025	0.021 ± 0.075	-0.021 ± 0.065	-0.0405 ± 0.053	-0.116 ± 0.0057	-0.008 ± 0.059	-0.011 ± 0.024	0.042 ± 0.021
HDF3CGF:Collagen III	-0.0055 ± 0.0064	-0.015 ± 0.041	-0.0705 ± 0.028	0.05 ± 0.014	0.0975 ± 0.0092	0.0145 ± 0.12	-0.0625 ± 0.12	-0.048 ± 0.052	-0.079 ± 0.05	-0.0675 ± 0.056	-0.004 ± 0.018	-0.0385 ± 0.053	-0.052 ± 0.05	-0.0205 ± 0.033	-0.008 ± 0.092	-0.087 ± 0.12	-0.211 ± 0.12	-0.0085 ± 0.0064	0.0005 ± 0.018	0.0005 ± 0.0035
HDF3CGF:EGFR	-0.017 ± 0.014	0.0145 ± 0.026	0.0535 ± 0.005	-0.011 ± 0.033	-0.0455 ± 0.03	-0.101 ± 0.026	-0.0145 ± 0.086	-0.043 ± 0.071	-0.039 ± 0.076	0.019 ± 0.014	0.0085 ± 0.026	-0.024 ± 0.059	-0.033 ± 0.057	0.0245 ± 0.11	-0.008 ± 0.0085	-0.0005 ± 0.025	0.013 ± 0.021	0.0135 ± 0.0078	0.032 ± 0.048	0.032 ± 0.075
HDF3CGF:M-CSF	-0.0345 ± 0.00071	-0.0245 ± 0.013	-0.0595 ± 0.035	-0.0035 ± 0.056	-0.014 ± 0.038	-0.0685 ± 0.04	0.0645 ± 0.053	0.049 ± 0.096	0.0505 ± 0.094	0.0175 ± 0.13	-0.0025 ± 0.011	0.0075 ± 0.019	0.003 ± 0.016	0 ± 0.034	-0.036 ± 0.083	-0.121 ± 0.098	-0.261 ± 0.046	-0.0095 ± 0.005	-0.01 ± 0.0085	0.0255 ± 0.036
HDF3CGF:MMP-1	0.0035 ± 0.016	0.011	0.008 ± 0.0085	0.0205 ± 0.012	-0.017 ± 0.028	-0.0835 ± 0.036	-0.0695 ± 0.011	-0.065 ± 0.016	-0.098 ± 0.018	-0.081 ± 0.042	0.0235 ± 0.013	0.013 ± 0.014	0.0205 ± 0.018	0.009 ± 0.024	0.0265 ± 0.0092	0.0845 ± 0.021	0.095 ± 0.0014	-0.0115 ± 0.0078	0.0025 ± 0.0035	0.0015 ± 0.0064
HDF3CGF:PAI-I	-0.0825 ± 0.052	-0.0995 ± 0.013	-0.051 ± 0.054	0.018 ± 0.034	-0.002 ± 0.021	0.0015 ± 0.0078	0.091 ± 0.011	0.0875 ± 0.0035	0.072 ± 0.0042	0.039 ± 0.0099	0.02 ± 0.073	0.0135 ± 0.049	-0.0315 ± 0.046	-0.0325 ± 0.011	-0.0265 ± 0.033	-0.0285 ± 0.013	-0.036 ± 0.027	-0.008 ± 0.017	-0.017 ± 0.0071	0.0115 ± 0.037
